Measurements: patent publication US11345699B2, “Apoptosis signal-regulating kinase 1 inhibitors and methods of use thereof” (Enanta Pharmaceuticals, Inc., priority 2018, dated 2022)

Each molecule was assayed against ASK1 (Homo sapiens (Human), UniProt Q99683) (assay: HTRF KinEASE Assay (TR-FRET), inhibition of ASK1). Details: ASK1 kinase, 100 μM ATP, 1 μM STK3 peptide substrate, compound 0 to 10 μM.
Chain of ASK1 (Q99683 whole entry): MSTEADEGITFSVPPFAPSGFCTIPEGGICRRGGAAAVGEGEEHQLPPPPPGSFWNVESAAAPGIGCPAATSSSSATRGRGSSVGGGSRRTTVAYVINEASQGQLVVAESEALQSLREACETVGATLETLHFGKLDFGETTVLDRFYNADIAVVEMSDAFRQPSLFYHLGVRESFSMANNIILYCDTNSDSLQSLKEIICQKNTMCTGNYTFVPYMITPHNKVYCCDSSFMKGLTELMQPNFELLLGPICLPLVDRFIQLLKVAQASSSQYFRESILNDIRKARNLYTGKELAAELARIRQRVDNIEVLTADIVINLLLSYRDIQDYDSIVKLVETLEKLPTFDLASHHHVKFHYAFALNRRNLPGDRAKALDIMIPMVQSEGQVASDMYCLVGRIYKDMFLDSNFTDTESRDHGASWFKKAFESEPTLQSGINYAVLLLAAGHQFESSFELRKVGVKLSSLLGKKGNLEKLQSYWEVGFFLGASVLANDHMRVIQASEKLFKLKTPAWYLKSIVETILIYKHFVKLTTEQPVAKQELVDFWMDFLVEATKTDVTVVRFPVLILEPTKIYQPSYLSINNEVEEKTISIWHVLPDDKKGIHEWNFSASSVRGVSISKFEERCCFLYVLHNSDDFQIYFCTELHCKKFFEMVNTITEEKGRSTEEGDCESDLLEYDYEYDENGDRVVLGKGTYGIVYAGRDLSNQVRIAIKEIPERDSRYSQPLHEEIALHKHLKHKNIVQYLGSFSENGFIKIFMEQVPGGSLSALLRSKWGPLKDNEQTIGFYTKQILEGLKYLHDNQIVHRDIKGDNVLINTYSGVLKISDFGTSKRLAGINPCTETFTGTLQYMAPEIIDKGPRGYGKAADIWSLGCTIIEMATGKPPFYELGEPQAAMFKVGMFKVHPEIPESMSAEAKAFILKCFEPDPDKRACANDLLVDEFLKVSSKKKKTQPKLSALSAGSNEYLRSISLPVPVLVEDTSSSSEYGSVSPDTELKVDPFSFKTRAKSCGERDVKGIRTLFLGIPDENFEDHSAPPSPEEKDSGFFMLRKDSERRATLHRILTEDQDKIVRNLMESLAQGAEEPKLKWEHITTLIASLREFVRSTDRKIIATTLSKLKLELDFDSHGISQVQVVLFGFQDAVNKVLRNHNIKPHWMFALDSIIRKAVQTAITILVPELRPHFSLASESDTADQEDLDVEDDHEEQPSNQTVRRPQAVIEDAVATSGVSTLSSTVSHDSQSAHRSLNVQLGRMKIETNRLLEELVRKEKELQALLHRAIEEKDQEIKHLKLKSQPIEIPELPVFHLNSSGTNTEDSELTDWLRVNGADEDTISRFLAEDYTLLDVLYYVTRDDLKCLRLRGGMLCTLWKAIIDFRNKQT
Format: biochemical
Method: Assay HTRF® KinEASE™ Assay
ASK1 was purchased from Thermofisher (Catalogue #PV4011), ATP was purchased from Sigma (Catalogue #A7699), HTRF® KinEASE™ Assay System was obtained from Cisbio (Bedford, Mass.). ½ Area plate was purchased from Perkin Elmer (Catalogue ##6005560). HTRF® KinEASE™-STK is a generic method for measuring serine/threonine kinase activities using a time-resolved fluorescence resonance energy transfer (TR-FRET) immunoassay. The IC50 value for each compound was determined in the presence of compound (various concentration from 0 to 10 μM) and a fixed amount of ATP and peptide substrates. The test compound, 1 μM STK3 peptide substrate, and […] of ASK1 kinase are incubated with kinase reaction buffer containing 50 mM HEPES Ph 7.5, 0.01% BRIJ-35, 10 mM MgCl2, and 1 mM EGTA for 30 minutes. 100 μM ATP is added to start kinase reaction and incubated for 3 hours. The STK3-antibody labeled with Eu^3+-Cryptate and 125 nM streptavidin-XL665 are mixed in a single addition with stop reagents provided by the Cisbio kit used to stop the kinase reaction. Fluorescence is detected using an Envision Multilabeled 2014 reader from PerkinElmer. The Fluorescence is measured at 615 nm (Cryptate) and 665 nm (XL665) and a ratio of 665 nm/615 nm is calculated for each well. The resulting TR-FRET is proportional to the phosphorylation level. Staurosporine was used as the positive control. IC50 was determined by Xlfit 5.3.
By using above method, the inhibition of ASK1 was evaluated for the compounds of Formula (I). Example numbers correspond to those in Table 5.
`COc1cc2c(cc1C(=O)Nc1cccc(-c3nnnn3[C@H](C)CO)n1)CN(S(=O)(=O)c1ccccn1)CC2` [Example 104] was tested, and the IC50 was less than 1.25 nM.
Work on `COCCOC(=O)N1CCc2cc(F)c(C(=O)Nc3cccc(-c4nnnn4[C@H](C)CO)n3)cc2C1` [Example 110] yielded an IC50 of 10 to 100 nM.
Molecule `CCN1CCc2cc(F)c(C(=O)Nc3cccc(-c4nnnn4[C@H](C)CO)n3)cc2C1` [Example 138] has an IC50 of 100 to 1000 nM.
Work on `COc1cc2c(cc1C(=O)Nc1cccc(-c3nnnn3[C@H](C)CO)n1)CN(c1cccnc1)CC2` [Example 150, (R)—N-(6-(1-(1-hydroxypropan-2-yl)-1H-tetrazol-5-yl)pyridin-2-yl)-6-methoxy-2-(pyridin-3-yl)-1,2,3,4-tetrahydroisoquinoline-7-carboxamide] yielded an IC50 of less than 1.25 nM.
`CCOC(=O)N1CCc2cc(F)c(C(=O)Nc3cccc(-c4nnnn4[C@H](C)CO)n3)cc2C1` [Example 109] showed an IC50 of 1.25 to 10 nM.
In the case of `C[C@H](CO)n1nnnc1-c1cccc(NC(=O)c2cc3c(cn2)CCN(C(=O)C(C)(C)O)C3)n1` [Example 140], the IC50 is reported as 1.25 to 10 nM.
`CC(C)CN1CCc2cnc(C(=O)Nc3cccc(-c4nncn4C(C)C)n3)cc2C1` [Example 3, 6-isobutyl-N-(6-(4-isopropyl-4H-1,2,4-triazol-3-yl)pyridin-2-yl)-5,6,7,8-tetrahydro-2,6-naphthyridine-3-carboxamide] gave an IC50 of 10 to 100 nM.
`COc1cc2c(cc1C(=O)Nc1cccc(-c3nncn3C(C)C)n1)CN(C(=O)C[C@H](C)O)CC2` [Example 127] was tested, and the IC50 was less than 1.25 nM.
Work on `COc1cc2c(cc1C(=O)Nc1cccc(-c3nnnn3[C@H](C)CO)n1)CN(c1c(N)c(=O)c1=O)CC2` [Example 98, (R)-2-(2-amino-3,4-dioxocyclobut-1-en-1-yl)-N-(6-(1-(1-hydroxypropan-2-yl)-1H-tetrazol-5-yl)pyridin-2-yl)-6-methoxy-1,2,3,4-tetrahydroisoquinoline-7-carboxamide] yielded an IC50 of 1.25 to 10 nM.
In the case of `COc1cc2c(cc1C(=O)Nc1cccc(-c3nnnn3[C@H](C)CO)n1)CN(C(=O)[C@@H]1CCOC1)CC2` [Example 142], the IC50 is reported as less than 1.25 nM.
`CC(C)n1cnnc1-c1cccc(NC(=O)c2cc3c(cn2)CCN(C(=O)OCC(F)(F)F)C3)n1` [Example 25, 2,2,2-trifluoroethyl 7-((6-(4-isopropyl-4H-1,2,4-triazol-3-yl)pyridin-2-yl)carbamoyl)-3,4-dihydro-2,6-naphthyridine-2(1H)-carboxylate] was tested, and the IC50 was 1.25 to 10 nM.
In the case of `COCCC(=O)N1CCc2cc(OC)c(C(=O)Nc3cccc(-c4nnnn4[C@H](C)CO)n3)cc2C1` [Example 124], the IC50 is reported as less than 1.25 nM.
For `COc1cc2c(cc1C(=O)Nc1cccc(-c3nncn3C(C)C)n1)CN(C(=O)C(C)(C)O)CC2` [Example 129], the IC50 was less than 1.25 nM.
`C[C@H](CO)n1nnnc1-c1cccc(NC(=O)c2cc3c(cn2)CCN(C(=O)C(C)(C)CO)C3)n1` [Example 99] gave an IC50 of 10 to 100 nM.
Molecule `C[C@H](CO)n1nnnc1-c1cccc(NC(=O)c2cc3c(cc2F)CCN(S(=O)(=O)c2ccc(F)cc2)C3)n1` [Example 137] has an IC50 of 10 to 100 nM.
`COc1cc2c(cc1C(=O)Nc1cccc(-c3nnnn3[C@H](C)CO)n1)CN(C(=O)c1cc3ccccc3cn1)CC2` [Example 102] was tested, and the IC50 was 1.25 to 10 nM.
`COc1cc2c(cc1C(=O)Nc1cccc(-c3nnnn3[C@H](C)CO)n1)CN(C(=O)OCC(C)(C)O)CC2` [Example 130, 2-hydroxy-2-methylpropyl (R)-7-((6-(1-(1-hydroxypropan-2-yl)-1H-tetrazol-5-yl)pyridin-2-yl)carbamoyl)-6-methoxy-3,4-dihydroisoquinoline-2(1H)-carboxylate] showed an IC50 of less than 1.25 nM.
Work on `C[C@H](CO)n1nnnc1-c1cccc(NC(=O)c2cc3c(cn2)CCN(C(=O)c2cnn(C4CC4)c2)C3)n1` [Example 100] yielded an IC50 of 1.25 to 10 nM.
With `COc1cc2c(cc1C(=O)Nc1cccc(-c3nnnn3[C@H](C)CO)n1)CN(C(=O)[C@@H](O)CC(C)C)CC2` [Example 113] the IC50 was less than 1.25 nM.
With `COc1cc2c(cc1C(=O)Nc1cccc(-c3nnnn3[C@H](C)CO)n1)CN(c1ncc(F)cn1)CC2` [Example 152, (R)-2-(5-fluoropyrimidin-2-yl)-N-(6-(1-(1-hydroxypropan-2-yl)-1H-tetrazol-5-yl)pyridin-2-yl)-6-methoxy-1,2,3,4-tetrahydroisoquinoline-7-carboxamide] the IC50 was 1.25 to 10 nM.
`CCOC(=O)N1CCc2cc(F)c(C(=O)Nc3cccc(-c4nncn4[C@H](C)CF)n3)cc2C1` [Example 103] was tested, and the IC50 was 1.25 to 10 nM.
`CC(C)n1cnnc1-c1cccc(NC(=O)c2cc3c(cn2)CCN(C(=O)C(C)(C)C)C3)n1` [Example 1, N-(6-(4-isopropyl-4H-1,2,4-triazol-3-yl)pyridin-2-yl)-6-pivaloyl-5,6,7,8-tetrahydro-2,6-naphthyridine-3-carboxamide] gave an IC50 of 1.25 to 10 nM.
Work on `COc1cc2c(cc1C(=O)Nc1cccc(-c3nncn3C(C)C)n1)CN(c1cncnc1)CC2` [Example 151, N-(6-(4-isopropyl-4H-1,2,4-triazol-3-yl)pyridin-2-yl)-6-methoxy-2-(pyrimidin-5-yl)-1,2,3,4-tetrahydroisoquinoline-7-carboxamide] yielded an IC50 of less than 1.25 nM.
`CCOC(=O)N1CCc2cnc(C(=O)Nc3cccc(-c4nnnn4[C@@H]4CCC[C@@H]4O)n3)cc2C1` [Example 146] showed an IC50 of 10 to 100 nM.
With `C[C@H](CO)n1nnnc1-c1cccc(NC(=O)c2cc3c(cc2F)CCN(S(=O)(=O)Nc2ccc(F)cc2)C3)n1` [Example 136] the IC50 was 10 to 100 nM.
For `CC(C)n1cnnc1-c1cccc(NC(=O)c2cc3c(cn2)CCN(S(=O)(=O)C2CC2)C3)n1` [Example 13, 6-(cyclopropylsulfonyl)-N-(6-(4-isopropyl-4H-1,2,4-triazol-3-yl)pyridin-2-yl)-5,6,7,8-tetrahydro-2,6-naphthyridine-3-carboxamide], the IC50 was 1.25 to 10 nM.
`C[C@H](CO)n1nnnc1-c1cccc(NC(=O)c2cc3c(cc2F)CCN(S(=O)(=O)NC2CC2)C3)n1` [Example 117] gave an IC50 of 10 to 100 nM.
`C[C@H](CO)n1nnnc1-c1cccc(NC(=O)c2cc3c(cc2F)CCN(c2ncccn2)C3)n1` [Example 123] gave an IC50 of 1.25 to 10 nM.
Molecule `COc1cc2c(cc1C(=O)Nc1cccc(-c3nnnn3[C@H](C)CO)n1)CN(C(=O)CN1CCOC1=O)CC2` [Example 149] has an IC50 of less than 1.25 nM.
For `C[C@H](CO)n1nnnc1-c1cccc(NC(=O)c2cc3c(cc2F)CCN(C(=O)NC2CC2)C3)n1` [Example 134], the IC50 was 1.25 to 10 nM.
`CCOC(=O)N1CCc2cc(F)c(C(=O)Nc3cccc(-c4nncn4[C@@H](C)CF)n3)cc2C1` [Example 107] showed an IC50 of 1.25 to 10 nM.
Work on `CCOC(=O)N1CCc2cc(OC)c(C(=O)Nc3cccc(-c4nncn4C(C)C)n3)cc2C1` [Example 17, ethyl 7-((6-(4-isopropyl-4H-1,2,4-triazol-3-yl)pyridin-2-yl)carbamoyl)-6-methoxy-3,4-dihydroisoquinoline-2(1H)-carboxylate] yielded an IC50 of 1.25 to 10 nM.
With `COc1cc2c(cc1C(=O)Nc1cccc(-c3nnnn3[C@H](C)CO)n1)CN(C(=O)C(C)(C)O)CC2` [Example 115] the IC50 was less than 1.25 nM.
Molecule `COc1cc2c(cc1C(=O)Nc1cccc(-c3nnnn3[C@H](C)CO)n1)CN(C(=O)c1cnccn1)CC2` [Example 112] has an IC50 of less than 1.25 nM.
For `C[C@H](CO)n1nnnc1-c1cccc(NC(=O)c2cc3c(cc2F)CCN(S(=O)(=O)C2CC2)C3)n1` [Example 119], the IC50 was 10 to 100 nM.
Molecule `COc1cc2c(cc1C(=O)Nc1cccc(-c3nnnn3[C@H](C)CO)n1)CN(CC(=O)N1CCCC1)CC2` [Example 132] has an IC50 of less than 1.25 nM.
Molecule `C[C@H](CO)n1nnnc1-c1cccc(NC(=O)c2cc3c(cc2F)CCN(c2ccccn2)C3)n1` [Example 122] has an IC50 of 1.25 to 10 nM.
